Data: patent US10561658B2, “Thieno- and pyrrolopyrimidine analogues as anticancer agents and methods of use thereof” (UNIVERSITY OF MARYLAND, BALTIMORE COUNTY, priority 2015, dated 2020)

Key:
[1] = In vivo systemic (IP) toxicity, body weight
Text: When dosing was completed, the mice were monitored for 14 days to determine any toxicity. In mice the best indicator of toxicity is weight loss.

[2] = system: Enterococcus faecalis (FRE) ATCC 51299; assay: Antimicrobial growth inhibition, E. faecalis; assay type: cell-based; conditions: ATCC51299; Enterococcus faecalis ATCC 51299, 100 μM
Description: (§1) Evaluation of antimicrobial activity in vitro. Compounds were tested against the following panel of bacteria and fungi purchased from the American Type Culture Collection (ATCC). Briefly, bacteria were grown to mid-log phase, diluted with fresh medium to an optical density at 600 nm (OD600) of 0.030-0.060 and then diluted again 1:10. This suspension (195 μL) was added to wells in a 96 well microtiter plate (Sarstedt) and 5 μL of compound dissolved in DMSO was added to give a final concentration of 100-0.1 μM at 2.5% DMSO by volume. A DMSO negative control and standard antibiotic positive controls were included in each plate. All compounds were tested in triplicate for each concentration. Plates were sealed with parafilm, placed in a Ziploc bag to prevent evaporation, and incubated at 30° C. (fungi) or 37° C. (bacteria) for 16-20 hours (48 hours for C. neoformans). The OD600 values for each well were determined with a plate reader (Biotek, EL800) and the data were standardized to the DMSO control wells after subtracting the background from blank medium. Initial single concentrations were tested at 100 μM and active compounds were further tested with at least nine concentrations for a full dose response. Dose response curves were generated using GraphPad Prism 5 software and used to determine the MIC95 concentrations (minimal concentration that inhibits 95% of growth). […]

[3] = system: L1210 cells; assay: Cell cycle distribution (propidium iodide, flow cytometry), L1210; assay type: cell-based, mouse; conditions: IC50 concentrations, 24 h or 48 h
Description: 0.32 μM compound 1, b. 5.4 μM compound 2, and analyzed by flow cytometry of fixed, propidium iodide-stained cells. A minimum of 3000 cells were analyzed per cell population. Each bar represents the mean±SD across 4 independent cell samples.
Many antineoplastic compounds arrest cell proliferation by activating specific checkpoints that block progression through the cell cycle. To test whether compounds 1 or 2 inhibited cell proliferation by this mechanism, their effects on L1210 cell cycle distributions were monitored using propidium iodide staining and flow cytometry (FIG. 7). Cell cycle and apoptosis studies were conducted on L1210, a mouse lymphocytic leukemia cell line obtained from the American Type Culture Collection and grown in Dulbecco's Modified Eagle's Medium (DMEM) plus 10% fetal bovine serum (FBS). 2×10^6 cells were seeded in 100 mm dishes and treated with vehicle alone or compounds 1 or 2 at the IC50 values determined by cell viability assays or an equivalent volume of DMSO. At 24 and 48 h following treatment the cells were collected, fixed, and stained with propidium iodide (Sigma Aldrich) immediately before analysis by flow cytometry. Vehicle-treated cells were largely confined to G1 and S phases, with very small (<5%) subpopulations in the G2/M phase or showing sub-(<G1) or super-genomic (>G2) DNA content.

[4] = system: MDA-MB-231 cells; assay: Cell cycle distribution (propidium iodide, flow cytometry), MDA-MB-231; assay type: cell-based, human
Description: Cell cycle distributions of MDA-MB-231 cells after 48 hours in the presence of equitoxic (IC80) doses of (a) compound 1 (15 μM) or (b) compound 2 (8 μM) analyzed by flow cytometry of fixed, propidium iodide-stained cells and compared to vehicle controls (DMSO). A minimum of 3000 cells were analyzed per cell population. Each bar represents the mean±SD across 4 independent cell samples.
Cell-cycle and apoptosis studies were conducted in MDA-MB-231 cells. Cell-cycle analysis of compound 19 at 15 μM concentration lead to arrest of 60% cells in G2/M stage. Similarly, at 1.75 μM concentration, compound 20 arrested 30% of cells in G2/M stage. […] To evaluate the possible mechanism for arrest of cell proliferation, cell-cycle distribution was measured using propidium iodide staining and flow cytometry. […] There are several possibilities that could account for this, including: (i) that cell lysis occurs rapidly following induction of apoptosis, preventing significant accumulation of annexin V-positive bodies, or (ii) that a distinct cell death pathway is triggered by compound 19.
(§2) Human metastatic breast cancer MDA-MB-231 cells were obtained from the American Type Culture Collection (ATCC) (Rockville, Md.) and maintained in Dulbecco's Modified Eagle's Medium (DMEM) containing 10% fetal bovine serum (FBS) without antibiotics at 37° C. in a humidified, CO2-controlled incubator. The cytotoxicity of compounds 1 and 2 was assessed by reduction of 3-(4, 5-dimethylthiazol-2-yl)-2,5-diphenyltetrazolium bromide (MTT). MDA-MB-231 cells were seeded in 96-well plates at 5×10^3 cells per well and treated with a range of drug concentrations. After 48 hours, cell viability was measured using the MTT Cell Proliferation Assay kit (ATCC) according to the manufacturer's instructions. Percent cell viability was plotted as a function of drug concentrations and analyzed using a sigmoidal dose response function with PRISM v3.03 software (GraphPad) to resolve drug concentrations yielding 50% cell death (IC50). The cell cycle distributions of MDA-MB-231 cells treated with compounds 1 or 2 were analyzed using propidium iodide staining and flow cytometry. 2×10^6 cells were seeded in 100 mm dishes and treated with compounds 1 or 2 at the IC80 values determined by cell viability assays or an equivalent volume of DMSO. 48 h following treatment the cells were collected, fixed, and stained with propidium iodide (Sigma Aldrich) immediately before analysis by flow cytometry.
As shown in Example 11, compounds 1 and 2 both induced apoptosis but involving a mechanism independent of cell cycle arrest. To test whether the toxicity of these agents for MDA-MB-231 cells proceeded via a similar pathway, their effects were monitored on cell cycle distributions using propidium iodide staining and flow cytometry. […]

[5] = system: Pseudomonas aeruginosa ATCC 27853; assay: Antimicrobial growth inhibition, P. aeruginosa; assay type: cell-based; conditions: ATCC27853; Pseudomonas aeruginosa ATCC 27853, 100 μM
Description: as §1

[6] = system: twenty kinases; assay: Select Screen kinase profiling, twenty kinases; assay type: biochemical; conditions: 5 μM
Text: The thieno[3,2-d]pyrimidine scaffold has been used extensively in the design of kinase inhibitors.

[7] = system: MDA-MB-231 cells; assay: MTT cytotoxicity, MDA-MB-231; assay type: cell-based; conditions: Homo sapiens; MDA-MB-231, cell viability (MTT), 48 h; read-out: IC80 (equitoxic dose)
Description: as §2

Row | SMILES | body weight ([1]; 20 mg/kg IP, 5 days) | toxicity when administered systemically ([1]; daily IP doses 5 consecutive days, monitored 14 days) | inhibition at 100 µM [2] | changes in L1210 cell cycle distribution [3] | cells accumulated in G2/M phase ([4]; MDA-MB-231, IC80 dose, 48 h) | inhibition at 100 µM [5] | inhibitory activity against twenty kinases [6] | IC80 [7] | effect on cell cycle distribution ([4]; MDA-MB-231, IC80 dose, 48 h) | cells arrested in G2/M stage ([4]; 15 μM)
1 | Clc1nc(Cl)c2sccc2n1 [Compound 1, 2,4-Dichlorothieno[3,2-d]pyrimidine] | maintaining their weight | non-toxic | < 43% | no substantial changes | > 70% | < 43% | did not exhibit any substantial inhibitory activity | 15 µM | – | –
2 | Clc1nc(Cl)c2scc(Br)c2n1 [Compound 2, 7-Bromo-2,4-dichlorothieno[3,2-d]pyrimidine] | – | – | < 43% | no substantial changes | – | < 43% | did not exhibit any substantial inhibitory activity | 8 µM | no effect | –
3 | Clc1nc(Cl)c2[nH]ccc2n1 [Compound 19, 2,4-Dichloropyrrolo[3,2-d]pyrimidine] | – | – | – | – | – | – | – | – | – | 60%
